In patent US20100152197A1, “(4-TERT-BUTYLPIPERAZIN-2-YL)(PIPERAZIN-1-YL)METHANONE-N-CARBOXAMIDE DERIVATIVES” (ASTRAZENECA AB, priority 2008, published 2010):

Target: T1, CCR2 (Homo sapiens, UniProt P41597)
T1 construct: cell membranes containing 6×10^6cells/ml equivalent; endogenous in cells; host or cells: THP1 cells (membrane fragments)
T1 sequence (P41597 1-360 isoform P41597-2): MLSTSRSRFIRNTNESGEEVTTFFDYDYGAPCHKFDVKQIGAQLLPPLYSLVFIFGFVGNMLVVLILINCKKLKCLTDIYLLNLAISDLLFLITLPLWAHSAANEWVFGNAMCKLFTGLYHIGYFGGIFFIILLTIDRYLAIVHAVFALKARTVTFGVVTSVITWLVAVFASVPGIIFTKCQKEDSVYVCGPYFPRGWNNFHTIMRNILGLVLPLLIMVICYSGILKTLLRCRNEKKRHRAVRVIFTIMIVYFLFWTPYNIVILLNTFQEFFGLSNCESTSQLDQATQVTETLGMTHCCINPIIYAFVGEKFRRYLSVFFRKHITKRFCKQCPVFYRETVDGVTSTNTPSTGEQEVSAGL
Experiment: hMCP-1 THP1 receptor-binding assay (125I-labeled MCP-1, SPA, THP1 cell membranes)
Settings: 250 pM 125I-labeled MCP-1, THP1 cell membranes, room temperature 16 hours; read-out: CCR2 Binding pIC50 (converted)
Procedure: hMCP-1 THP1 Receptor-Binding Assay
i) Preparation of Membrane Fragments
THP1 cells were grown in RPMI (Sigma) supplemented with 10% foetal calf serum, 2 mM glutamine (Gibco), 100 units/ml Penicillin and 100 μg/ml Streptomycin (Invitrogen). Membrane fragments were prepared using cell lysis/differential centrifugation methods as described previously (Siciliano et al., 1990, J. Biol. Chem., 265, 19658). Protein concentration was estimated by BCA protein assay (Pierce, Rockford, Ill.) according to the manufacturer's instructions.
^125I-labeled MCP-1 was prepared using Bolton and Hunter conjugation (Bolton et al., 1973, Biochem. J., 133, 529; Amersham International plc).
Test compounds were dissolved in DMSO and further diluted in assay buffer (50 mM HEPES, 1 mM CaCl2, 5 mM MgCl2, 1 mM EDTA, 0.03% BSA, pH 7.2) to give a range of concentrations starting with a top final concentration of up to 10 μM. […] Incubations contained 250 pM ^125I-labeled MCP-1 (GE Healthcare), 0.5 mg Scintillation proximity assay beads (GE Healthcare RPNQ001) and cell membranes containing 6×10^6cells/ml equivalent. Non-specific binding was determined by the inclusion of 10 μM of a known CCR2b antagonist in the place of test compound. Total binding was determined in the presence of 1% DMSO without compound. Incubations were performed in sealed optiplates and kept at room temperature for 16 hours after which the plates were counted on a Packard TopCount (Packard TopCount™). Dose-response curves were generated using “in-house” data analysis package incorporating Origin software to determine IC50 values. Percent inhibitions were calculated for single concentrations of compound by using the following formula 100−((compound binding minus non-specific binding)/(total binding minus non-specific binding)×100).

Compound | IC50 [nM]
CC(C)(C)N1CCN[C@@H](C(=O)N2CCN(C(=O)Nc3cccc(C(F)(F)F)c3)CC2)C1 [Example 1, 4-[(2R)-4-tert-butylpiperazine-2-carbonyl]-N[3(trifluoromethyl)phenyl]piperazine-1-carboxamide] | 3.09
CC(C)(C)N1CCN[C@@H](C(=O)N2CCN(C(=O)Nc3cccc(SC(F)(F)F)c3)CC2)C1 [Example 3, 4-[(2R)-4-tert-butylpiperazine-2-carbonyl]-N-[3-(trifluoromethylsulfanyl)phenyl]piperazine-1-carboxamide] | 2.82
CC(C)(C)N1CCN[C@@H](C(=O)N2CCN(C(=O)Nc3ccc(Br)cc3)CC2)C1 [Example 4, N-(4-bromophenyl)-4-[(2R)-4-tert-butylpiperazine-2-carbonyl]piperazine-1-carboxamide] | 6.76
CC(C)(C)N1CCN[C@@H](C(=O)N2CCN(C(=O)Nc3ccc(Cl)c(F)c3)CC2)C1 [Example 9, 4-[(2R)-4-tert-butylpiperazine-2-carbonyl]-N-(4-chloro-3-fluorophenyl)piperazine-1-carboxamide] | 2.57
CC(C)(C)N1CCN[C@@H](C(=O)N2CCN(C(=O)Nc3cccc(OC(F)(F)C(F)F)c3)CC2)C1 [Example 10, 4-[(2R)-4-tert-butylpiperazine-2-carbonyl]-N-[3-(1,1,2,2-tetrafluoroethoxy)phenyl]piperazine-1-carboxamide] | 6.76
CC(C)(C)N1CCN[C@@H](C(=O)N2CCN(C(=O)Nc3cccc(OCc4ccccc4)c3)CC2)C1 [Example 12, 4-[(2R)-4-tert-butylpiperazine-2-carbonyl]-N-(3-phenylmethoxyphenyl)piperazine-1-carboxamide] | 1.82
CC(C)(C)N1CCN[C@@H](C(=O)N2CCN(C(=O)Nc3ccc(OC(F)(F)F)c(Cl)c3)CC2)C1 [Example 13, 4-[(2R)-4-tert-butylpiperazine-2-carbonyl]-N-[3-chloro-4-(trifluoromethoxy)phenyl]piperazine-1-carboxamide] | < 0.871
Cc1nc(NC(=O)N2CCN(C(=O)[C@H]3CN(C(C)(C)C)CCN3)CC2)sc1Br [Example 14, N-(5-bromo-4-methyl-1,3-thiazol-2-yl)-4-[(2R)-4-tert-butylpiperazine-2-carbonyl]piperazine-1-carboxamide] | 2.75

Further lines, results first:

IC50 [nM] | Compound
2.57 | CC(C)(C)N1CCN[C@@H](C(=O)N2CCN(C(=O)Nc3cccc(Cl)c3)CC2)C1 [Example 2, 4-[(2R)-4-tert-butylpiperazine-2-carbonyl]-N-(3-chlorophenyl)piperazine-1-carboxamide]
2 | CC(C)(C)N1CCN[C@@H](C(=O)N2CCN(C(=O)Nc3ccc(F)c(C(F)(F)F)c3)CC2)C1 [Example 5, 4-[(2R)-4-tert-butylpiperazine-2-carbonyl]-N-[4-fluoro-3(trifluoromethyl)phenyl]piperazine-1-carboxamide]
1.82 | Cc1ccc(NC(=O)N2CCN(C(=O)[C@H]3CN(C(C)(C)C)CCN3)CC2)cc1C(F)(F)F [Example 6, 4-[(2R)-4-tert-butylpiperazine-2-carbonyl]-N-[4-methyl-3-(trifluoromethyl)phenyl]piperazine-1-carboxamide]
8.51 | CC(C)(C)N1CCN[C@@H](C(=O)N2CCN(C(=O)Nc3ccc(F)c(Cl)c3)CC2)C1 [Example 7, 4-[(2R)-4-tert-butylpiperazine-2-carbonyl]-N-(3-chloro-4-fluorophenyl)piperazine-1-carboxamide]
7.24 | CC(C)(C)N1CCN[C@@H](C(=O)N2CCN(C(=O)Nc3ccc(C#N)c(C(F)(F)F)c3)CC2)C1 [Example 8, 4-[(2R)-4-tert-butylpiperazine-2-carbonyl]-N-[4-cyano-3-(trifluoromethyl)phenyl]piperazine-1-carboxamide]
2.29 | Cc1cc(NC(=O)N2CCN(C(=O)[C@H]3CN(C(C)(C)C)CCN3)CC2)ccc1Cl [Example 11, 4-[(2R)-4-tert-butylpiperazine-2-carbonyl]-N-(4-chloro-3-methylphenyl)piperazine-1-carboxamide]
< 0.447 | CCc1nc(NC(=O)N2CCN(C(=O)[C@H]3CN(C(C)(C)C)CCN3)CC2)sc1Cl [Example 15, 4-[(2R)-4-tert-butylpiperazine-2-carbonyl]-N-(5-chloro-4-ethyl-1,3-thiazol-2-yl)piperazine-1-carboxamide]
1.26 | Cc1nc(NC(=O)N2CCN(C(=O)[C@H]3CN(C(C)(C)C)CCN3)CC2)sc1Cl [Example 16, 4-[(2R)-4-tert-butylpiperazine-2-carbonyl]-N-(5-chloro-4-methyl-1,3-thiazol-2-yl)piperazine-1-carboxamide]
< 0.447 | CC(C)(C)N1CCN[C@@H](C(=O)N2CCN(C(=O)Nc3nc(C(F)(F)F)c(Cl)s3)CC2)C1 [Example 17, 4-[(2R)-4-tert-butylpiperazine-2-carbonyl]-N-[5-chloro-4-(trifluoromethyl)-1,3-thiazol-2-yl]piperazine-1-carboxamide]
